Laboratory results published in US12617779B2, “Self degradation-type CDK9 inhibitor prodrug and liposome encapsulating same” (Sumitomo Pharma Co., Ltd., priority 2021, dated 2026).

Assay: Evaluation of conversion rate to active form in buffer solution (Experimental Example 1)
Type: physicochemical
Conditions: for Stability in buffer solution at pH 5 / Conversion to Alvocidib at pH 5 within 3 hours: pH 5, 37° C.; for Stability in buffer solution at pH 5: up to 2 or 3 hours
Method: For Examples 1 to 16 and Comparative Examples 1 to 14, the attrition rate of the test compound and the conversion rate of the test compound to Alvocidib in a buffer solution were calculated by the following method.
Examples 1 to 16 and Comparative Examples 1 to 14 were each left in buffer solutions adjusted to pH 5.0, 5.5, 6.0, 6.5, 7.0 and 7.4, respectively, at a concentration of 25 umol/L at 37° C. After 0, 0.5, 1, 2 and 3 hours, the residual rates of the compounds of Examples […] and the production rate of Alvocidib were determined by HPLC.
The buffer solutions used at each pH are as follows. • pH 5.0: 50 mM citrate buffer solution (pH 5.0) • pH 5.5: 50 mM citrate buffer solution (pH 5.5) • pH 6.0: 50 mM phosphate buffer solution (pH 6.0) • pH 6.5: 50 mM phosphate buffer solution (pH 6.5) • pH 7.0: 50 mM phosphate buffer solution (pH 7.0) • pH 7.4: 50 mM phosphate buffer solution (pH 7.4)
The measurement conditions for HPLC are as follows.

[1] = pH5.0, 0 hr, 37° C., 25 umol/L in buffer solution
[2] = pH5.0, 0.5 hr, 37° C., 25 umol/L in buffer solution
[3] = pH5.0, 1 hr, 37° C., 25 umol/L in buffer solution
[4] = pH5.0, 2 hr, 37° C., 25 umol/L in buffer solution
[5] = pH5.0, 3 hr, 37° C., 25 umol/L in buffer solution
[6] = pH5.5, 0 hr, 37° C., 25 umol/L in buffer solution
[7] = pH5.5, 0.5 hr, 37° C., 25 umol/L in buffer solution
[8] = pH5.5, 1 hr, 37° C., 25 umol/L in buffer solution
[9] = pH5.5, 2 hr, 37° C., 25 umol/L in buffer solution
[10] = pH5.5, 3 hr, 37° C., 25 umol/L in buffer solution
[11] = pH6.0, 0 hr, 37° C., 25 umol/L in buffer solution
[12] = pH6.0, 0.5 hr, 37° C., 25 umol/L in buffer solution
[13] = pH6.0, 1 hr, 37° C., 25 umol/L in buffer solution
[14] = pH6.0, 2 hr, 37° C., 25 umol/L in buffer solution
[15] = pH6.0, 3 hr, 37° C., 25 umol/L in buffer solution
[16] = pH6.5, 0 hr, 37° C., 25 umol/L in buffer solution
[17] = pH6.5, 0.5 hr, 37° C., 25 umol/L in buffer solution
[18] = pH6.5, 1 hr, 37° C., 25 umol/L in buffer solution
[19] = pH6.5, 2 hr, 37° C., 25 umol/L in buffer solution
[20] = pH6.5, 3 hr, 37° C., 25 umol/L in buffer solution
[21] = pH7.0, 0 hr, 37° C., 25 umol/L in buffer solution
[22] = pH7.0, 0.5 hr, 37° C., 25 umol/L in buffer solution
[23] = pH7.0, 1 hr, 37° C., 25 umol/L in buffer solution
[24] = pH7.0, 2 hr, 37° C., 25 umol/L in buffer solution
[25] = pH7.0, 3 hr, 37° C., 25 umol/L in buffer solution
[26] = pH7.4, 0 hr, 37° C., 25 umol/L in buffer solution
[27] = pH7.4, 0.5 hr, 37° C., 25 umol/L in buffer solution
[28] = pH7.4, 1 hr, 37° C., 25 umol/L in buffer solution
[29] = pH7.4, 2 hr, 37° C., 25 umol/L in buffer solution
[30] = pH7.4, 3 hr, 37° C., 25 umol/L in buffer solution

## CCNC(=O)Oc1cc(O)c2c(=O)cc(-c3ccccc3Cl)oc2c1[C@H]1CCN(C)C[C@H]1O [Comparative Example 1, reference compound]
[1]
  Production rate of Alvocidib: 8.4%
  Residual rate: 91.6%
  Stability in buffer solution at pH 5: unstable
  Conversion to Alvocidib at pH 5 within 3 hours: mostly converted to Alvocidib
[2]
  Production rate of Alvocidib: 37.9%
  Residual rate: 62.1%
[3]
  Production rate of Alvocidib: 58.5%
  Residual rate: 41.5%
[4]
  Production rate of Alvocidib: 82.1%
  Residual rate: 17.9%
[5]
  Production rate of Alvocidib: 91.8%
  Residual rate: 8.2%
[6]
  Production rate of Alvocidib: 8.8%
  Residual rate: 91.2%
[7]
  Production rate of Alvocidib: 74.7%
  Residual rate: 25.3%
[8]
  Production rate of Alvocidib: 92.7%
  Residual rate: 7.3%
[9]
  Production rate of Alvocidib: 98.9%
  Residual rate: 1.1%
[10]
  Production rate of Alvocidib: 99.3%
  Residual rate: 0.7%
[11]
  Production rate of Alvocidib: 10.1%
  Residual rate: 89.9%
[12]
  Production rate of Alvocidib: 96.3%
  Residual rate: 3.7%
[13]
  Production rate of Alvocidib: 98.3%
  Residual rate: 1.5%
[14]
  Production rate of Alvocidib: 98.5%
  Residual rate: 1.3%
[15]
  Production rate of Alvocidib: 99.0%
  Residual rate: 1.0%
[16]
  Production rate of Alvocidib: 12.9%
  Residual rate: 87.1%
[17]
  Production rate of Alvocidib: 98.7%
  Residual rate: 1.3%
[18]
  Production rate of Alvocidib: 99.0%
  Residual rate: 1.0%
[19]
  Production rate of Alvocidib: 98.9%
  Residual rate: 1.1%
[20]
  Production rate of Alvocidib: 99.2%
  Residual rate: 0.8%
[21]
  Production rate of Alvocidib: 22.2%
  Residual rate: 77.8%
[22]
  Production rate of Alvocidib: 99.0%
  Residual rate: 1.0%
[23]
  Production rate of Alvocidib: 99.1%
  Residual rate: 0.9%
[24]
  Production rate of Alvocidib: 98.8%
  Residual rate: 1.0%
[25]
  Production rate of Alvocidib: 99.1%
  Residual rate: 0.9%
[26]
  Production rate of Alvocidib: 40.2%
  Residual rate: 59.8%
[27]
  Production rate of Alvocidib: 99.1%
  Residual rate: 0.9%
[28]
  Production rate of Alvocidib: 98.9%
  Residual rate: 1.1%
[29]
  Production rate of Alvocidib: 99.1%
  Residual rate: 1.0%
[30]
  Production rate of Alvocidib: 99.3%
  Residual rate: 0.7%

## CNC(=O)Oc1cc(O)c2c(=O)cc(-c3ccccc3Cl)oc2c1[C@H]1CCN(C)C[C@H]1O [Comparative Example 2, reference compound]
pH5.0, 0 hr
  Production rate of Alvocidib: 2.0%
  Residual rate: 96.6%
  Stability in buffer solution at pH 5: unstable
  Conversion to Alvocidib at pH 5 within 3 hours: mostly converted to Alvocidib
pH5.0, 0.5 hr
  Production rate of Alvocidib: 31.8%
  Residual rate: 66.9%
pH5.0, 1 hr
  Production rate of Alvocidib: 53.2%
  Residual rate: 45.1%
pH5.0, 2 hr
  Production rate of Alvocidib: 79.0%
  Residual rate: 19.3%
pH5.0, 3 hr
  Production rate of Alvocidib: 90.0%
  Residual rate: 8.5%
pH5.5, 0 hr
  Production rate of Alvocidib: 2.4%
  Residual rate: 96.4%
pH5.5, 0.5 hr
  Production rate of Alvocidib: 70.5%
  Residual rate: 28.0%
pH5.5, 1 hr
  Production rate of Alvocidib: 90.8%
  Residual rate: 7.5%
pH5.5, 2 hr
  Production rate of Alvocidib: 97.6%
  Residual rate: 0.6%
pH5.5, 3 hr
  Production rate of Alvocidib: 98.6%
  Residual rate: 0.0%
pH6.0, 0 hr
  Production rate of Alvocidib: 3.3%
  Residual rate: 95.1%
pH6.0, 0.5 hr
  Production rate of Alvocidib: 95.7%
  Residual rate: 2.5%
pH6.0, 1 hr
  Production rate of Alvocidib: 98.2%
  Residual rate: 0.0%
pH6.0, 2 hr
  Production rate of Alvocidib: 98.3%
  Residual rate: 0.0%
pH6.0, 3 hr
  Production rate of Alvocidib: 98.6%
  Residual rate: 0.0%
pH6.5, 0 hr
  Production rate of Alvocidib: 7.1%
  Residual rate: 91.5%
pH6.5, 0.5 hr
  Production rate of Alvocidib: 98.3%
  Residual rate: 0.0%
pH6.5, 1 hr
  Production rate of Alvocidib: 98.3%
  Residual rate: 0.0%
pH6.5, 2 hr
  Production rate of Alvocidib: 98.5%
  Residual rate: 0.0%
pH6.5, 3 hr
  Production rate of Alvocidib: 98.2%
  Residual rate: 0.0%
pH7.0, 0 hr
  Production rate of Alvocidib: 17.0%
  Residual rate: 81.8%
pH7.0, 0.5 hr
  Production rate of Alvocidib: 98.6%
  Residual rate: 0.0%
pH7.0, 1 hr
  Production rate of Alvocidib: 98.3%
  Residual rate: 0.0%
pH7.0, 2 hr
  Production rate of Alvocidib: 98.3%
  Residual rate: 0.0%
pH7.0, 3 hr
  Production rate of Alvocidib: 98.3%
  Residual rate: 0.0%
pH7.4, 0 hr
  Production rate of Alvocidib: 34.5%
  Residual rate: 63.9%
pH7.4, 0.5 hr
  Production rate of Alvocidib: 98.4%
  Residual rate: 0.0%
pH7.4, 1 hr
  Production rate of Alvocidib: 98.2%
  Residual rate: 0.0%
pH7.4, 2 hr
  Production rate of Alvocidib: 98.5%
  Residual rate: 0.0%
pH7.4, 3 hr
  Production rate of Alvocidib: 98.5%
  Residual rate: 0.0%

## CNC(=O)O[C@@H]1CN(C)CC[C@@H]1c1c(O)cc(O)c2c(=O)cc(-c3ccccc3Cl)oc12 [Comparative Example 5, reference compound]
pH5.0, 0 hr
  Production rate of Alvocidib: 0.0%
  Residual rate: 93.9%
pH5.0, 0.5 hr
  Production rate of Alvocidib: 0.0%
  Residual rate: 93.5%
pH5.0, 1 hr
  Production rate of Alvocidib: 0.0%
  Residual rate: 93.4%
pH5.0, 2 hr
  Production rate of Alvocidib: 0.0%
  Residual rate: 93.9%
pH5.0, 3 hr
  Production rate of Alvocidib: 0.0%
  Residual rate: 93.9%
pH5.5, 0 hr
  Production rate of Alvocidib: 0.0%
  Residual rate: 93.9%
pH5.5, 0.5 hr
  Production rate of Alvocidib: 0.0%
  Residual rate: 93.8%
pH5.5, 1 hr
  Production rate of Alvocidib: 0.0%
  Residual rate: 93.8%
pH5.5, 2 hr
  Production rate of Alvocidib: 0.0%
  Residual rate: 94.0%
pH5.5, 3 hr
  Production rate of Alvocidib: 0.0%
  Residual rate: 93.6%
pH6.0, 0 hr
  Production rate of Alvocidib: 0.0%
  Residual rate: 93.5%
pH6.0, 0.5 hr
  Production rate of Alvocidib: 0.0%
  Residual rate: 94.0%
pH6.0, 1 hr
  Production rate of Alvocidib: 0.0%
  Residual rate: 93.5%
pH6.0, 2 hr
  Production rate of Alvocidib: 0.0%
  Residual rate: 93.9%
pH6.0, 3 hr
  Production rate of Alvocidib: 0.0%
  Residual rate: 94.0%
pH6.5, 0 hr
  Production rate of Alvocidib: 0.0%
  Residual rate: 93.5%
pH6.5, 0.5 hr
  Production rate of Alvocidib: 0.0%
  Residual rate: 93.9%
pH6.5, 1 hr
  Production rate of Alvocidib: 0.0%
  Residual rate: 93.6%
pH6.5, 2 hr
  Production rate of Alvocidib: 0.0%
  Residual rate: 93.5%
pH6.5, 3 hr
  Production rate of Alvocidib: 0.0%
  Residual rate: 93.5%
pH7.0, 0 hr
  Production rate of Alvocidib: 0.0%
  Residual rate: 93.9%
pH7.0, 0.5 hr
  Production rate of Alvocidib: 0.0%
  Residual rate: 93.4%
pH7.0, 1 hr
  Production rate of Alvocidib: 0.0%
  Residual rate: 93.8%
pH7.0, 2 hr
  Production rate of Alvocidib: 0.0%
  Residual rate: 93.9%
pH7.0, 3 hr
  Production rate of Alvocidib: 0.0%
  Residual rate: 93.3%
pH7.4, 0 hr
  Production rate of Alvocidib: 0.0%
  Residual rate: 93.3%
pH 7.4, 37° C., up to 3 hours
  Conversion to Alvocidib at pH 7.4: slowly converted to Alvocidib
pH7.4, 0.5 hr
  Production rate of Alvocidib: 0.0%
  Residual rate: 93.9%
pH7.4, 1 hr
  Production rate of Alvocidib: 0.0%
  Residual rate: 93.9%
pH7.4, 2 hr
  Production rate of Alvocidib: 0.0%
  Residual rate: 93.4%
pH7.4, 3 hr
  Production rate of Alvocidib: 0.0%
  Residual rate: 93.4%
